Test system: FLAP (5-lipoxygenase activating protein)
Assay: In vitro binding test: displacement of [3H]-7-chloro-3-(5-((3-fluoropyridin-2-yl)methoxy)-2-methylphenyl)-3,4-dihydroquinazolin-2(1H)-one from Sf9 microsome fractions
Set-up: species or system human and mouse
Details: Sf9 microsome fractions expressing FLAP; 100% = radioligand binding with 10 μM sodium 3-(3-(tert-butylsulfanyl)-1-(4-chlorobenzyl)-5-isopropyl-1H-indol-2-yl)-2,2-dimethylpropanoate, 0% = DMSO; test compound concentration not given
Outline: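 Sf9 microsomes expressing human or mouse FLAP (2 μg/mL) preincubated with compound 10 min at room temperature, then 120 nM tritiated quinazolinone ligand added for 60 min; buffer 100 mM Tris-HCl pH 7.5 with NaCl, EDTA, DTT, glycerol, Tween20. Bound ligand filtered and counted by scintillation; 10 μM indole propanoate defines 100% inhibition, DMSO 0%.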

Row | Structure (SMILES) | inhibitory rate (%)
1 | Cc1cc2c(cc1N1Cc3c(cc(-c4ccnn4C)nc3C3CC3)NC1=O)OC(c1ncccc1F)CC2 (stereo not shown) [Example 93, 5-cyclopropyl-3-(2-(3-fluoropyridin-2-yl)-6-methyl-3,4-dihydro-2H-chromen-7-yl)-7-(1-methyl-1H-pyrazol-5-yl)-3,4-dihydropyrido[4,3-d]pyrimidin-2(1H)-one] | 112
2 | O=C1Nc2cc(-c3noc(=O)[nH]3)nc(C3CC3)c2CN1c1cc2c(cc1Cl)CCC(c1ncccc1F)O2 (stereo not shown) [Example 103, 3-(6-chloro-2-(3-fluoropyridin-2-yl)-3,4-dihydro-2H-chromen-7-yl)-5-cyclopropyl-7-(5-oxo-4,5-dihydro-1,2,4-oxadiazol-3-yl)-3,4-dihydropyrido[4,3-d]pyrimidin-2(1H)-one] | 94
3 | Cc1cc2c(cc1N1Cc3c(cc(C4CC4)nc3-c3ccnn3C)NC1=O)OC(c1ncccc1F)CC2 (stereo not shown) [Example 104, 7-cyclopropyl-3-(2-(3-fluoropyridin-2-yl)-6-methyl-3,4-dihydro-2H-chromen-7-yl)-5-(1-methyl-1H-pyrazol-5-yl)-3,4-dihydropyrido[4,3-d]pyrimidin-2(1H)-one] | 91
4 | O=C1Nc2cc(N3CCCS3(=O)=O)nc(C3CC3)c2CN1c1cc2c(cc1Cl)CCC(c1ncccc1F)O2 (stereo not shown) [Example 106, 3-(6-chloro-2-(3-fluoropyridin-2-yl)-3,4-dihydro-2H-chromen-7-yl)-5-cyclopropyl-7-(1,1-dioxido-1,2-thiazolidin-2-yl)-3,4-dihydropyrido[4,3-d]pyrimidin-2(1H)-one] | 94
5 | O=C1Nc2c(N3CCC(O)CC3)ncc(Cl)c2CN1c1cc2c(cc1Cl)CCC(c1ncccc1F)O2 (stereo not shown) [Example 109, 5-chloro-3-(6-chloro-2-(3-fluoropyridin-2-yl)-3,4-dihydro-2H-chromen-7-yl)-8-(4-hydroxypiperidin-1-yl)-3,4-dihydropyrido[3,4-d]pyrimidin-2(1H)-one] | 106
6 | O=C1OCCN1c1cc2c(c(C3CC3)n1)CN(c1cc3c(cc1Cl)CCC(c1ncccc1F)O3)C(=O)N2 (stereo not shown) [Example 113, 3-(6-chloro-2-(3-fluoropyridin-2-yl)-3,4-dihydro-2H-chromen-7-yl)-5-cyclopropyl-7-(2-oxo-1,3-oxazolidin-3-yl)-3,4-dihydropyrido[4,3-d]pyrimidin-2(1H)-one] | 114
7 | CC(C)(O)CNC(=O)c1cc2c(c(C3CC3)n1)CN(c1cc3c(cc1Cl)CCC(c1ncccc1F)O3)C(=O)N2 (stereo not shown) [Example 114, 3-(6-chloro-2-(3-fluoropyridin-2-yl)-3,4-dihydro-2H-chromen-7-yl)-5-cyclopropyl-N-(2-hydroxy-2-methylpropyl)-2-oxo-1,2,3,4-tetrahydropyrido[4,3-d]pyrimidine-7-carboxamide] | 106
8 | O=C1Nc2cc(-c3ccn[nH]3)nc(C3CC3)c2CN1c1cc2c(cc1Cl)CCC(c1ncccc1F)O2 (stereo not shown) [Example 115, 3-(6-chloro-2-(3-fluoropyridin-2-yl)-3,4-dihydro-2H-chromen-7-yl)-5-cyclopropyl-7-(1H-pyrazol-5-yl)-3,4-dihydropyrido[4,3-d]pyrimidin-2(1H)-one] | 106
9 | O=C1Nc2cc(-c3cn[nH]c3)nc(C3CC3)c2CN1c1cc2c(cc1Cl)CCC(c1ncccc1F)O2 (stereo not shown) [Example 116, 3-(6-chloro-2-(3-fluoropyridin-2-yl)-3,4-dihydro-2H-chromen-7-yl)-5-cyclopropyl-7-(1H-pyrazol-4-yl)-3,4-dihydropyrido[4,3-d]pyrimidin-2(1H)-one] | 102
10 | O=C1Nc2cc(-c3noc(=S)[nH]3)nc(C3CC3)c2CN1c1cc2c(cc1Cl)CCC(c1ncccc1F)O2 (stereo not shown) [Example 118, 3-(6-chloro-2-(3-fluoropyridin-2-yl)-3,4-dihydro-2H-chromen-7-yl)-5-cyclopropyl-7-(5-thioxo-4,5-dihydro-1,2,4-oxadiazol-3-yl)-3,4-dihydropyrido[4,3-d]pyrimidin-2(1H)-one] | 104

Now from value to molecule:

Row | inhibitory rate (%) | Structure (SMILES)
11 | 106 | Cc1cc2c(cc1N1Cc3c(C(F)(F)F)ncc(/C=C/C(=O)O)c3NC1=O)OC(c1ncccc1F)CC2 (stereo not shown) [Example 92, (2E)-3-(3-(2-(3-fluoropyridin-2-yl)-6-methyl-3,4-dihydro-2H-chromen-7-yl)-2-oxo-5-(trifluoromethyl)-1,2,3,4-tetrahydropyrido[4,3-d]pyrimidine-8-yl)acrylic acid]
12 | 104 | Cc1cc2c(cc1N1Cc3c(cc(CCC(=O)O)nc3C3CC3)NC1=O)OC(c1ncccc1F)CC2 (stereo not shown) [Example 94, 3-(5-cyclopropyl-3-(2-(3-fluoropyridin-2-yl)-6-methyl-3,4-dihydro-2H-chromen-7-yl)-2-oxo-1,2,3,4-tetrahydropyrido[4,3-d]pyrimidin-7-yl)propanoic acid]
13 | 89 | NC(=O)c1cc2c(c(C3CC3)n1)CN(c1cc3c(cc1Cl)CCC(c1ncccc1F)O3)C(=O)N2 (stereo not shown) [Example 95, 3-(6-chloro-2-(3-fluoropyridin-2-yl)-3,4-dihydro-2H-chromen-7-yl)-5-cyclopropyl-2-oxo-1,2,3,4-tetrahydropyrido[4,3-d]pyrimidine-7-carboxamide]
14 | 84 | CCc1cc2c(c(C3CC3)n1)CN(c1cc3c(cc1C)CCC(c1ncccc1F)O3)C(=O)N2 (stereo not shown) [Example 96, 5-cyclopropyl-7-ethyl-3-(2-(3-fluoropyridin-2-yl)-6-methyl-3,4-dihydro-2H-chromen-7-yl)-3,4-dihydropyrido[4,3-d]pyrimidin-2(1H)-one]
15 | 90 | COCCNC(=O)c1cc2c(c(C3CC3)n1)CN(c1cc3c(cc1Cl)CCC(c1ncccc1F)O3)C(=O)N2 (stereo not shown) [Example 97, 3-(6-chloro-2-(3-fluoropyridin-2-yl)-3,4-dihydro-2H-chromen-7-yl)-5-cyclopropyl-N-(2-methoxyethyl)-2-oxo-1,2,3,4-tetrahydropyrido[4,3-d]pyrimidine-7-carboxamide]
16 | 94 | O=C(NC1COC1)c1cc2c(c(C3CC3)n1)CN(c1cc3c(cc1Cl)CCC(c1ncccc1F)O3)C(=O)N2 (stereo not shown) [Example 98, 3-(6-chloro-2-(3-fluoropyridin-2-yl)-3,4-dihydro-2H-chromen-7-yl)-5-cyclopropyl-N-(oxetan-3-yl)-2-oxo-1,2,3,4-tetrahydropyrido[4,3-d]pyrimidine-7-carboxamide]
17 | 94 | CNC(=O)c1cc2c(c(C3CC3)n1)CN(c1cc3c(cc1Cl)CCC(c1ncccc1F)O3)C(=O)N2 (stereo not shown) [Example 99, 3-(6-chloro-2-(3-fluoropyridin-2-yl)-3,4-dihydro-2H-chromen-7-yl)-5-cyclopropyl-N-methyl-2-oxo-1,2,3,4-tetrahydropyrido[4,3-d]pyrimidine-7-carboxamide]
18 | 100 | Cn1cc(-c2cc3c(c(C4CC4)n2)CN(c2cc4c(cc2Cl)CCC(c2ncccc2F)O4)C(=O)N3)cn1 (stereo not shown) [Example 100, 3-(6-chloro-2-(3-fluoropyridin-2-yl)-3,4-dihydro-2H-chromen-7-yl)-5-cyclopropyl-7-(1-methyl-1H-pyrazol-4-yl)-3,4-dihydropyrido[4,3-d]pyrimidin-2(1H)-one]
19 | 96 | O=C(NCCO)c1cc2c(c(C3CC3)n1)CN(c1cc3c(cc1Cl)CCC(c1ncccc1F)O3)C(=O)N2 (stereo not shown) [Example 101, 3-(6-chloro-2-(3-fluoropyridin-2-yl)-3,4-dihydro-2H-chromen-7-yl)-5-cyclopropyl-N-(2-hydroxyethyl)-2-oxo-1,2,3,4-tetrahydropyrido[4,3-d]pyrimidine-7-carboxamide]
20 | 101 | Cn1cc(-c2ncc(Cl)c3c2NC(=O)N(c2cc4c(cc2Cl)CCC(c2ncccc2F)O4)C3)cn1 (stereo not shown) [Example 102, 5-chloro-3-(6-chloro-2-(3-fluoropyridin-2-yl)-3,4-dihydro-2H-chromen-7-yl)-8-(1-methyl-1H-pyrazol-4-yl)-3,4-dihydropyrido[3,4-d]pyrimidin-2(1H)-one]
21 | 93 | COc1ncc(C(F)(F)F)c2c1NC(=O)N(c1cc3c(cc1C)CCC(c1ncccc1F)O3)C2 (stereo not shown) [Example 107, 3-(2-(3-fluoropyridin-2-yl)-6-methyl-3,4-dihydro-2H-chromen-7-yl)-8-methoxy-5-(trifluoromethyl)-3,4-dihydropyrido[3,4-d]pyrimidin-2(1H)-one]
22 | 104 | COc1ncc(C(F)(F)F)c2c1NC(=O)N(c1cc3c(cc1Cl)CCC(c1ncccc1F)O3)C2 (stereo not shown) [Example 108, 3-(6-chloro-2-(3-fluoropyridin-2-yl)-3,4-dihydro-2H-chromen-7-yl)-8-methoxy-5-(trifluoromethyl)-3,4-dihydropyrido[3,4-d]pyrimidin-2(1H)-one]
23 | 99 | COCCOc1cnc(C(F)(F)F)c2c1NC(=O)N(c1cc3c(cc1C)CCC(c1ncccc1F)O3)C2 (stereo not shown) [Example 110, 3-(2-(3-fluoropyridin-2-yl)-6-methyl-3,4-dihydro-2H-chromen-7-yl)-8-(2-methoxyethoxy)-5-(trifluoromethyl)-3,4-dihydropyrido[4,3-d]pyrimidin-2(1H)-one]
24 | 103 | O=C(c1cc2c(c(C3CC3)n1)CN(c1cc3c(cc1Cl)CCC(c1ncccc1F)O3)C(=O)N2)N1CC(O)C1 (stereo not shown) [Example 112, 3-(6-chloro-2-(3-fluoropyridin-2-yl)-3,4-dihydro-2H-chromen-7-yl)-5-cyclopropyl-7-((3-hydroxyazetidin-1-yl)carbonyl)-3,4-dihydropyrido[4,3-d]pyrimidin-2(1H)-one]
25 | 106 | O=C1Nc2cc(-c3n[nH]c(=O)o3)nc(C3CC3)c2CN1c1cc2c(cc1Cl)CCC(c1ncccc1F)O2 (stereo not shown) [Example 117, 3-(6-chloro-2-(3-fluoropyridin-2-yl)-3,4-dihydro-2H-chromen-7-yl)-5-cyclopropyl-7-(5-oxo-4,5-dihydro-1,3,4-oxadiazol-2-yl)-3,4-dihydropyrido[4,3-d]pyrimidin-2(1H)-one]
